In ChEMBL document CHEMBL1129518, “Synthesis and pharmacologic evaluation of 2-endo-amino-3-exo-isopropylbicyclo[2.2.1]heptane: a potent imidazoline1 receptor specific agent” (J Med Chem, 1996):

Experiments:
[1] = target: T1, Alpha-2C adrenergic receptor (Homo sapiens, UniProt P18825); test: Binding affinity for human Alpha-2C adrenergic receptor
T1 sequence (P18825 whole entry): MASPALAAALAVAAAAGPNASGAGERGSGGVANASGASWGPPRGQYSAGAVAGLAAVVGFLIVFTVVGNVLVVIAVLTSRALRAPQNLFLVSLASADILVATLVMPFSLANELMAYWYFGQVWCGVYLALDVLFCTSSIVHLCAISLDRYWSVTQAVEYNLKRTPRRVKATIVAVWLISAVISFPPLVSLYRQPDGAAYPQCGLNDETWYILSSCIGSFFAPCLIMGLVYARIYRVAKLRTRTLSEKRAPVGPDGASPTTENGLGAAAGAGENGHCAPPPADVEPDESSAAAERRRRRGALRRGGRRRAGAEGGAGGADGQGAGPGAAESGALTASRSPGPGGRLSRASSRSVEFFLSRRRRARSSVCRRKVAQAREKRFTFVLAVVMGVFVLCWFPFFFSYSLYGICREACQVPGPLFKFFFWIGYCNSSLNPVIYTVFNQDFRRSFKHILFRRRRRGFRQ

[2] = target: T2, Alpha-2B adrenergic receptor (Rattus norvegicus, UniProt P19328); test: Binding affinity for rat Alpha-2B adrenergic receptor
T2 sequence (P19328 whole entry): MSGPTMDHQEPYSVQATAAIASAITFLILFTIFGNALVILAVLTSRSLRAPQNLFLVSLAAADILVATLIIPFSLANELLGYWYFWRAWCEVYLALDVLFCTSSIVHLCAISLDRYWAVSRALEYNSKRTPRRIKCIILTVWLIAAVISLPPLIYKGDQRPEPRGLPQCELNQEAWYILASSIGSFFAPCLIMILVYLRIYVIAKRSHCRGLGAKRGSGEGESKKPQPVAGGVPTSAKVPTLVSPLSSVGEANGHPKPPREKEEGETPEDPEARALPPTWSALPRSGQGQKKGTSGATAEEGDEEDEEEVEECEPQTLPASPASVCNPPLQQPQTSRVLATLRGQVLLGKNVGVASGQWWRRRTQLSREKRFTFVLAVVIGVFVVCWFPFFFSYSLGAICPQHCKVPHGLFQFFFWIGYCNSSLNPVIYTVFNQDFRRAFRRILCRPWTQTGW

[3] = target: T3, Adrenergic receptor alpha-1 (Homo sapiens, UniProt P35348+P25100+P35368); test: Binding affinity for human brain Alpha-1 adrenergic receptor
T3 sequence (P35348 whole entry): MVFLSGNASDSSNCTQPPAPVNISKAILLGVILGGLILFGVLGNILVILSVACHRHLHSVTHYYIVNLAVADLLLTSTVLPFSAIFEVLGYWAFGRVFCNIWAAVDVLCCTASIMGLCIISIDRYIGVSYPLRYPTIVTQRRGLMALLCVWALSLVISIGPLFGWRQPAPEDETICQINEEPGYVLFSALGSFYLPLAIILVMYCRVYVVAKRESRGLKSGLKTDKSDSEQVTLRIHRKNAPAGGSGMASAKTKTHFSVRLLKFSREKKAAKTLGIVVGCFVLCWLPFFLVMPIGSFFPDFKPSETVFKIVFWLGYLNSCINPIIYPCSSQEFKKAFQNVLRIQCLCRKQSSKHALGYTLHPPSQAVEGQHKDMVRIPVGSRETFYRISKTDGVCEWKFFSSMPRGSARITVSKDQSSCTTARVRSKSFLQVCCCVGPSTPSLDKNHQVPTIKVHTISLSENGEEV
T3 sequence (P25100 whole entry): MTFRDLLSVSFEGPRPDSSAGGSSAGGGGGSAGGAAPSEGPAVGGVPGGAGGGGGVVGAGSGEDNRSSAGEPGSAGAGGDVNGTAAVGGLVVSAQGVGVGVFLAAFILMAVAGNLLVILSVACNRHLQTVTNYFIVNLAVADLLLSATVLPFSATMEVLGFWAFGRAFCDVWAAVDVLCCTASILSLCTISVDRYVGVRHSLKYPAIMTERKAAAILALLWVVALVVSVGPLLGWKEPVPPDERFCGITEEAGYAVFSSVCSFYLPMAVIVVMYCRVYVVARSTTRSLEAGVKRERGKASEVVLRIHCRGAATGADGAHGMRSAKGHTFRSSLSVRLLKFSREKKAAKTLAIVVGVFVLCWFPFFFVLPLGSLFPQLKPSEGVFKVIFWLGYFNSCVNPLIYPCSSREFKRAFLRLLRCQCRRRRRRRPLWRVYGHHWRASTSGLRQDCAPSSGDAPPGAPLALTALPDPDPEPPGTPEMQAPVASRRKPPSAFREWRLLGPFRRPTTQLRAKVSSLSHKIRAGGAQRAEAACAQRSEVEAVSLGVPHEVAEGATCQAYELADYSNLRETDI
T3 sequence (P35368 whole entry): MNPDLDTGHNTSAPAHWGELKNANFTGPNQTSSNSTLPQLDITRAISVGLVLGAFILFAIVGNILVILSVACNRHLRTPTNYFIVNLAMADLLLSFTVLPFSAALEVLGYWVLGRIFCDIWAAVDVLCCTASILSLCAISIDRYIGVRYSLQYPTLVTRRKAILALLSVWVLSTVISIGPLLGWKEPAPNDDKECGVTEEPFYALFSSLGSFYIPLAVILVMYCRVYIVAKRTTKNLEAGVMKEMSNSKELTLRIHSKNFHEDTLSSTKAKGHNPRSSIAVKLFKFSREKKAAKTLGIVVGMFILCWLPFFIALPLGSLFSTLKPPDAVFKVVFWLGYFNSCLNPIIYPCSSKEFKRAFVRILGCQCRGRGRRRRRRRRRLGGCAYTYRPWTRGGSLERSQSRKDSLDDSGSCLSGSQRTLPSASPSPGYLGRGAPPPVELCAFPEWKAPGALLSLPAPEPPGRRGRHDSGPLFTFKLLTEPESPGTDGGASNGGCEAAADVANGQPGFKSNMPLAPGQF

[4] = target: T4, Alpha-2A adrenergic receptor (Homo sapiens, UniProt P08913); test: Binding affinity for human Alpha-2A adrenergic receptor
T4 sequence (P08913 whole entry): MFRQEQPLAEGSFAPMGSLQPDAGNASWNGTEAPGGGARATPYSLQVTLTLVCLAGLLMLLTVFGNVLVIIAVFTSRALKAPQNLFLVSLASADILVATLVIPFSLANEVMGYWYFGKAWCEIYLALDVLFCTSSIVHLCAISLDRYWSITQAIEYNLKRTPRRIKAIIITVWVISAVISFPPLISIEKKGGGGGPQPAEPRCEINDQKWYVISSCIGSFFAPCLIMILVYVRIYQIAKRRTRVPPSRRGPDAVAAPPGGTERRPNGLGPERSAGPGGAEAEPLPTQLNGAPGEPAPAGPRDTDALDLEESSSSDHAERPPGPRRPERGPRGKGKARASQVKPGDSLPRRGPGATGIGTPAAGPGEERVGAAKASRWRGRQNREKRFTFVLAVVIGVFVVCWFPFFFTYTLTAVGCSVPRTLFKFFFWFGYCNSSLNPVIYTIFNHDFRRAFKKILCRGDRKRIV

Ki [1] [µM] | Ki [2] [µM] | Ki [3] [µM] | Ki [4] [µM] | SMILES
> 20 | > 20 | > 100 | > 20 | CC(C)C1C2CCC(C2)C1N (stereo not given)
 |  | > 30 |  | COc1nc(C)nc(Cl)c1NC1=NCCN1 [MOXONIDINE]
